Counter-ions that a name gives are not always drawn. Like-named read-outs stand apart in the source and are kept apart here.
Target: T1, human recombinant Monoacylglycerol Lipase (Homo sapiens, UniProt Q99685)
T1 sequence (Q99685 1-303): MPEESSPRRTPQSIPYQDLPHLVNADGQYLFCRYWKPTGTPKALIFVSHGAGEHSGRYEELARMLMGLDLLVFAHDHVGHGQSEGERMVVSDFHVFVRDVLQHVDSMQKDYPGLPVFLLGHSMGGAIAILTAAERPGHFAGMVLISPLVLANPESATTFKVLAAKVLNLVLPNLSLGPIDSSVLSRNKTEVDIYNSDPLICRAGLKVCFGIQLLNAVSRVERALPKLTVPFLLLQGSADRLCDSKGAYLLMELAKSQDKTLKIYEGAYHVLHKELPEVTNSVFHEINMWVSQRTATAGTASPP
Experiment: MAGL inhibition enzymatic assay, fluorogenic substrate 7-HCA, IC50 at T=0 min or after 30 minute incubation (T=30 min)
Assay type: biochemical
Conditions: geometric mean of 2-4 determinations unless otherwise indicated
Protocol: An equal volume of 7-HCA in assay buffer with 10% DMSO was added either immediately (T=0 min) or after a 30 minute incubation (T=30 min) to initiate the reaction. […] After these dilutions, the final concentration of the test compound ranged from 3 μM to 0.03 nM. […] IC50 values were generated based on a four parameter fit model using ABASE software from IDBS.

[1] = T = 0 min (substrate added immediately), read-out: MAGL (T = 0 min) IC50
[2] = T = 30 min (30 minute incubation), read-out: MAGL (T = 30 min) IC50

| SMILES | IC50 [1] [nM] | IC50 [2] [nM] |
| --- | --- | --- |
| CN(C)CCOP(=O)(O)OC[C@@H](OC(=O)N1CCC2(CC1)CN(S(=O)(=O)c1ccc(F)cc1)CCO2)C(F)(F)F (mixture of isomers) [Example 89] | > 3000 | > 3000 |
| O=C(O[C@H](CO)C(F)(F)F)N1CCC2(CC1)CC(c1cccnc1)CO2 (mixture of isomers) [Example 122] | 385 | 32 |
| O=C(O[C@H](CO)C(F)(F)F)N1CCC2(CC1)CN(CC1CCCOC1)CCO2 (single isomer, unassigned) [Example 5] | 1700 | 161 |
| CC1N(S(=O)(=O)c2ccc(F)cc2)CCOC12CCN(C(=O)O[C@H](CO)C(F)(F)F)CC2 (single isomer, unassigned) [Example 70] | 655 | 69 |
| O=C(O[C@H](CO)C(F)(F)F)N1CCC2(CC1)CC(n1cccn1)CO2 (single isomer, unassigned) [Example 104] | 1860 | 157 |
| CN(C1COC2(CCN(C(=O)O[C@H](CO)C(F)(F)F)CC2)C1)S(=O)(=O)C1CCOCC1 (single isomer, unassigned) [Example 116] | 986 | 84 |
| CN(C1COC2(CCN(C(=O)O[C@H](CO)C(F)(F)F)CC2)C1)S(=O)(=O)C1CCOCC1 (single isomer, unassigned) [Example 117] | 1970 | 153 |
| O=C(O[C@H](CO)C(F)(F)F)N1CCC2(CC1)CC(Oc1ccccn1)CO2 (single isomer, unassigned) [Example 129] | > 3000 | 474 |
| O=C(OC(C(F)(F)F)C(F)(F)CO)N1CCC2(CC1)CN(S(=O)(=O)c1ccc(F)cc1)CCO2 (single isomer, unassigned; ent-2) [Example 21, 1,1,1,3,3-Pentafluoro-4-hydroxybutan-2-yl 4-[(4-fluorophenyl)sulfonyl]-1-oxa-4,9-diazaspiro[5.5]undecane-9-carboxylate, ENT-2] | 599 | 53 |
| O=C(O[C@H](CO)C(F)(F)F)N1C[C@@H]2CN(S(=O)(=O)c3ccc(F)c(F)c3)C[C@@H]2C1 [Example 13, (2R)-1,1,1-Trifluoro-3-hydroxypropan-2-yl (3aR,6aS)-5-[(3,4-difluorophenyl)sulfonyl]hexahydropyrrolo[3,4-c]pyrrole-2(1H)-carboxylate] | 368 | 35 |
| O=C(O[C@H](CO)C(F)(F)F)N1CCC2(CC1)CN(c1ccc(F)cn1)CCO2 [Example 14, (2R)-1,1,1-Trifluoro-3-hydroxypropan-2-yl 4-(5-fluoropyridin-2-yl)-1-oxa-4,9-diazaspiro[5.5]undecane-9-carboxylate] | 485 | 45 |
| O=C(O[C@H](CO)C(F)(F)F)N1CCC(O)(CNS(=O)(=O)c2ccccc2)CC1 [Example 16, (2R)-1,1,1-Trifluoro-3-hydroxypropan-2-yl 4-hydroxy-4-{[(phenylsulfonyl)amino]methyl}piperidine-1-carboxylate] | 1840 | 161 |
| O=C1COC2(CCN(C(=O)O[C@H](CO)C(F)(F)F)CC2)CN1Cc1ccc(F)cc1 [Example 17, (2R)-1,1,1-Trifluoro-3-hydroxypropan-2-yl 4-(4-fluorobenzyl)-3-oxo-1-oxa-4,9-diazaspiro[5.5]undecane-9-carboxylate] | 951 | 110 |
| CCC1CN(S(=O)(=O)c2ccc(F)cc2)CC2(CCN(C(=O)O[C@H](CO)C(F)(F)F)CC2)O1 (stereo partly drawn) [Example 18, (2R)-1,1,1-Trifluoro-3-hydroxypropan-2-yl 2-ethyl-4-[(4-fluorophenyl)sulfonyl]-1-oxa-4,9-diazaspiro[5.5]undecane-9-carboxylate] | 524 | 49 |
| O=C(O[C@H](CO)C(F)(F)F)N1CCC2(CC1)CN(S(=O)(=O)N1CCOCC1)CCO2 [Example 22, (2R)-1,1,1-Trifluoro-3-hydroxypropan-2-yl 4-(morpholin-4-ylsulfonyl)-1-oxa-4,9-diazaspiro[5.5]undecane-9-carboxylate] | 2640 | 192 |
| O=C(O[C@H](CO)C(F)(F)F)N1C2CCC1CN(Cc1ccc(F)cc1)C2 [Example 23, (2R)-1,1,1-Trifluoro-3-hydroxypropan-2-yl 3-(4-fluorobenzyl)-3,8-diazabicyclo[3.2.1]octane-8-carboxylate] | > 1520 | 78 |
| CN(CC1(O)CCN(C(=O)O[C@H](CO)C(F)(F)F)CC1)S(=O)(=O)c1ccccc1 [Example 24, (2R)-1,1,1-Trifluoro-3-hydroxypropan-2-yl 4-hydroxy-4-{[methyl(phenylsulfonyl)amino]methyl}piperidine-1-carboxylate] | 1900 | 195 |
| O=C(O[C@H](CO)C(F)(F)F)N1CCN(Cc2ccc(F)cc2)CC1 [Example 25, (2R)-1,1,1-trifluoro-3-hydroxypropan-2-yl 4-(4-fluorobenzyl)piperazine-1-carboxylate] | 794 | 71 |
| O=C(O[C@H](CO)C(F)(F)F)N1CCC2(CC1)CC(Nc1ccccn1)CO2 (stereo partly drawn) [Example 27, (2R)-1,1,1-Trifluoro-3-hydroxypropan-2-yl 3-(pyridin-2-ylamino)-1-oxa-8-azaspiro[4.5]decane-8-carboxylate] | 484 | 43 |
| O=C(O[C@H](CO)C(F)(F)F)N1CCC2(CC1)CN(Cc1ccc(F)cc1)S(=O)(=O)CO2 [Example 28, (2R)-1,1,1-Trifluoro-3-hydroxypropan-2-yl 4-(4-fluorobenzyl)-1-oxa-3-thia-4,9-diazaspiro[5.5]undecane-9-carboxylate 3,3-dioxide] | 696 | 85 |

| SMILES | IC50 [1] [nM] | IC50 [2] [nM] |
| --- | --- | --- |
| CN([C@H]1COC2(CCN(C(=O)O[C@H](COP(=O)(O)O)C(F)(F)F)CC2)C1)S(=O)(=O)c1ccccc1 [Example 30, (2R)-3,3,3-Trifluoro-2-[({(3R)-3-[methyl(phenylsulfonyl)amino]-1-oxa-8-azaspiro[4.5]dec-8-yl}carbonyl)oxy]propyl phosphate, disodium salt] | > 3000 | 549 |
| O=C(O[C@H](COP(=O)(O)O)C(F)(F)F)N1CCC2(CC1)CN(S(=O)(=O)c1ccc(F)cc1)CCO2 [Example 33, (2R)-3,3,3-Trifluoro-2-[({4-[(4-fluorophenyl)sulfonyl]-1-oxa-4,9-diazaspiro[5.5]undec-9-yl}carbonyl)oxy]propyl phosphate, (bis)-L-lysine salt] | > 3000 | > 3000 |
| O=C(OC(CO)C(F)(F)F)N1CCC(c2ccnc(N3CCOCC3)n2)CC1 (centres unmarked) [Example 35] | 339 | 32 |
| O=C(OC(CO)C(F)(F)F)N1CCC(c2ccn(C3CCOCC3)n2)CC1 (centres unmarked) [Example 38, 1,1,1-trifluoro-3-hydroxypropan-2-yl 4-[1-(tetrahydro-2H-pyran-4-yl)-1H-pyrazol-3-yl]piperidine-1-carboxylate] | 1470 | 77 |
| O=C(O[C@H](CO)C(F)(F)F)N1C[C@@H]2CN(S(=O)(=O)c3ccc(F)cc3)C[C@@H]2C1 [Example 40] | 494 | 50 |
| O=C(O[C@H](CO)C(F)(F)F)N1CCC2(CCCN(Cc3ccc(F)cc3)C2)CC1 [Example 41] | 1580 | 166 |
| O=C(O[C@H](CO)C(F)(F)F)N1CCC(O)(CN(Cc2ccc(F)cc2)C2CCOCC2)CC1 [Example 46] | 560 | 46 |
| O=C(O[C@H](CO)C(F)(F)F)N1C[C@@H]2CN(c3cc(C4CC4)ccn3)C[C@@H]2C1 [Example 48] | > 3000 | 926 |
| O=C(O[C@H](CO)C(F)(F)F)N1CCC2(CC1)CN(S(=O)(=O)C1CCOCC1)CCO2 [Example 49] | > 3000 | 654 |
| O=C(O[C@H](CO)C(F)(F)F)N1CCC(CN(Cc2ccc(F)cc2)C2CCOCC2)CC1 [Example 50] | 857 | 71 |
| O=C(O[C@H](CO)C(F)(F)F)N1CCC2(CC1)CN(S(=O)(=O)CCCN1CCCC1)CCO2 [Example 54] | > 3000 | > 1680 |
| O=C(O[C@H](CO)C(F)(F)F)N1CCC2(CC1)CN(S(=O)(=O)CCc1ccccn1)CCO2 [Example 55] | 447 | 43 |
| O=C(O[C@H](CO)C(F)(F)F)N1CCC2(CC1)CN(S(=O)(=O)CCCn1ccnc1)CCO2 [Example 56] | 2340 | 167 |
| Cc1cnc(OC2CCN(C(=O)O[C@H](CO)C(F)(F)F)CC2)nc1-c1ccnn1C [Example 58] | 249 | 33 |
| Cn1nccc1-c1ccnc(OC2CCN(C(=O)O[C@H](CO)C(F)(F)F)CC2)c1 [Example 64] | 550 | 42 |
| Cn1nccc1-c1cccc(OC2CCN(C(=O)O[C@H](CO)C(F)(F)F)CC2)n1 [Example 65] | 359 | 30 |
| O=C(O[C@H](CO)C(F)(F)F)N1CCC2(CC1)CN(Cc1ccc(F)cc1)C(=O)O2 [Example 72] | 220 | 28 |
| O=C(O[C@H](CO)C(F)(F)F)N1CCC2(CC1)CN(S(=O)(=O)NCc1ccccn1)CCO2 [Example 74] | 392 | 52 |
| O=C(O[C@H](CO)C(F)(F)F)N1CCC(Oc2ccc(CO)cn2)CC1 [Example 75] | 688 | 79 |
| Cc1cnc(N2CCOC3(CCN(C(=O)O[C@H](CO)C(F)(F)F)CC3)C2)nc1 [Example 76] | 658 | 83 |
